According to ChEMBL document CHEMBL3991601, “The target landscape of clinical kinase drugs” (Science, 2017):
Active and inactive are the calls of the source. Rule as the data show it, for most assays here: actives have a measured Kd and inactives only a lower limit.

What was measured:
[1] = biological target: T1, General transcription and DNA repair factor IIH helicase subunit XPD (Homo sapiens, UniProt P18074); conditions: read-out: Kd apparent; k-562, colo 205, sk-n-be(2) and mv-4-11
T1 sequence (P18074 whole entry): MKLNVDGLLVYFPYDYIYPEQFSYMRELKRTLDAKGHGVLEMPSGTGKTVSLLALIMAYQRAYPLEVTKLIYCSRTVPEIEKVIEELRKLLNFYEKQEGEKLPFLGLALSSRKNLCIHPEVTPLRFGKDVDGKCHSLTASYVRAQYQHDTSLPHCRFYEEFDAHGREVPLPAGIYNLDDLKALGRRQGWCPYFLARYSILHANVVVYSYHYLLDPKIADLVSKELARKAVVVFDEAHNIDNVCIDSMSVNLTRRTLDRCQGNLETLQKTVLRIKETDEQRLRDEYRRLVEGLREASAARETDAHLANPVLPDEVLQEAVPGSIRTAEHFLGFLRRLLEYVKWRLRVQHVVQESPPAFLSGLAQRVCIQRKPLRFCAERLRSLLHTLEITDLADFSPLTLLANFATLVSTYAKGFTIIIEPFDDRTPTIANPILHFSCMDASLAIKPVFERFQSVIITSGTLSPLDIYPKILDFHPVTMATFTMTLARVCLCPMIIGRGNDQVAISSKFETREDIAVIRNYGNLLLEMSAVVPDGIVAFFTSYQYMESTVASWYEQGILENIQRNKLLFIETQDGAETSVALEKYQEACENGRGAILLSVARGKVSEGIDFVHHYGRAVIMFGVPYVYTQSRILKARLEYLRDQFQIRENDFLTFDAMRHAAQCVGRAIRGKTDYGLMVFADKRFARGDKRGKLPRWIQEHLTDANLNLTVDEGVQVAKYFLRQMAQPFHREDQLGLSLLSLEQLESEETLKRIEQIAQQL

[2] = biological target: T2, Serine/threonine-protein kinase Chk1 (Homo sapiens, UniProt O14757)
T2 sequence (O14757 whole entry): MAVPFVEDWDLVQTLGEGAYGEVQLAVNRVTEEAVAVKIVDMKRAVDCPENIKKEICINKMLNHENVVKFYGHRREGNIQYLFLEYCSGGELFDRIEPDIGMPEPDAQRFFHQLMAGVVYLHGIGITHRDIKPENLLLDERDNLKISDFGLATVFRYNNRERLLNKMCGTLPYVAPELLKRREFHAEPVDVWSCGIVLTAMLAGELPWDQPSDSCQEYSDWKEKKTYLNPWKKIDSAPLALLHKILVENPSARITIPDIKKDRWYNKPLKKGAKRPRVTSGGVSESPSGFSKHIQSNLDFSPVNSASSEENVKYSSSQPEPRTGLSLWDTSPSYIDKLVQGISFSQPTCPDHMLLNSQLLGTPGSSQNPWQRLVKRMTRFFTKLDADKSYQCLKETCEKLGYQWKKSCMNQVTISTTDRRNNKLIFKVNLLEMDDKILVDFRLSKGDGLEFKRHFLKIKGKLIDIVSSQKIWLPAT

[3] = biological target: T3, Serine/threonine-protein kinase Nek1 (Homo sapiens, UniProt Q96PY6)
T3 sequence (Q96PY6 whole entry): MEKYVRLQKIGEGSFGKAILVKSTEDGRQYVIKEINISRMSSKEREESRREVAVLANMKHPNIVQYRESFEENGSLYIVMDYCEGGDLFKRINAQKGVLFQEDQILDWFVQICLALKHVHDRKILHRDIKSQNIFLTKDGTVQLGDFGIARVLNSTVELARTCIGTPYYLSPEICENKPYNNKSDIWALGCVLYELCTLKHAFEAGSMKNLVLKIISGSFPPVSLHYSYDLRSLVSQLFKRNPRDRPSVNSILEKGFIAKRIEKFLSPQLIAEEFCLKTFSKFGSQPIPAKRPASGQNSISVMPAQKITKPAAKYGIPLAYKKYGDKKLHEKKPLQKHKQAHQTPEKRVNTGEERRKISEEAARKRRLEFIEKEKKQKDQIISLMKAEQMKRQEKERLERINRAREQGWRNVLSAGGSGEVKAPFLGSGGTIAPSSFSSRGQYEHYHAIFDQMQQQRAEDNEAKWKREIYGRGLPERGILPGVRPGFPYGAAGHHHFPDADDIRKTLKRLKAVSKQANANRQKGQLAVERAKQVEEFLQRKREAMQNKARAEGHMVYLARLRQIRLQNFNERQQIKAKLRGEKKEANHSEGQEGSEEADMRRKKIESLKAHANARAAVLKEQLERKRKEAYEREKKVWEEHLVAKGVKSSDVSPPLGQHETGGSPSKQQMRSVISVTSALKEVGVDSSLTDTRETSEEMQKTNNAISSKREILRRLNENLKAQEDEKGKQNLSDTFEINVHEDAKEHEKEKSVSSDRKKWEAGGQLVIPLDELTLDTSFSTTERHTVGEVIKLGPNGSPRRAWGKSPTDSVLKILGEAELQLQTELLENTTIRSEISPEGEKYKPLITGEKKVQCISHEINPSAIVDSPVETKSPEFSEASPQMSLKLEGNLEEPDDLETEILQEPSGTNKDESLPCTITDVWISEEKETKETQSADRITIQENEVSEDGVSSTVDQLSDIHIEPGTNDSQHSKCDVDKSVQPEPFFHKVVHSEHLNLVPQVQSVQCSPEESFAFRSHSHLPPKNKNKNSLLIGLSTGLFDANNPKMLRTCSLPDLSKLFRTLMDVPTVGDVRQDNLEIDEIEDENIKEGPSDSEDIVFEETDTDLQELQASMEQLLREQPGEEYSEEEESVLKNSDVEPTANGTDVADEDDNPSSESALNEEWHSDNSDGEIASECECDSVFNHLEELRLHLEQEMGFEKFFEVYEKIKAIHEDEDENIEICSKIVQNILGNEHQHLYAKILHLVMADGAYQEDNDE

Rab-like protein 3 = biological target: T4, Rab-like protein 3 (Homo sapiens, UniProt Q5HYI8)
T4 sequence (Q5HYI8 whole entry): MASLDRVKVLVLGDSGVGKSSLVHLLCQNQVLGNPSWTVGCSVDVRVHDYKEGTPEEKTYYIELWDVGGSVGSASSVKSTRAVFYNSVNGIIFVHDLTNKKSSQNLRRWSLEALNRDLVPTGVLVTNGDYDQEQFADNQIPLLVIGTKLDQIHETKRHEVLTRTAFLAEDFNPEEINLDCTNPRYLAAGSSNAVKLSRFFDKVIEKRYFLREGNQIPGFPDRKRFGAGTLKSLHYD

[4] = biological target: AP2-associated protein kinase 1 (Homo sapiens, UniProt Q2M2I8)
AP2-associated protein kinase 1, sequence (Q2M2I8 whole entry): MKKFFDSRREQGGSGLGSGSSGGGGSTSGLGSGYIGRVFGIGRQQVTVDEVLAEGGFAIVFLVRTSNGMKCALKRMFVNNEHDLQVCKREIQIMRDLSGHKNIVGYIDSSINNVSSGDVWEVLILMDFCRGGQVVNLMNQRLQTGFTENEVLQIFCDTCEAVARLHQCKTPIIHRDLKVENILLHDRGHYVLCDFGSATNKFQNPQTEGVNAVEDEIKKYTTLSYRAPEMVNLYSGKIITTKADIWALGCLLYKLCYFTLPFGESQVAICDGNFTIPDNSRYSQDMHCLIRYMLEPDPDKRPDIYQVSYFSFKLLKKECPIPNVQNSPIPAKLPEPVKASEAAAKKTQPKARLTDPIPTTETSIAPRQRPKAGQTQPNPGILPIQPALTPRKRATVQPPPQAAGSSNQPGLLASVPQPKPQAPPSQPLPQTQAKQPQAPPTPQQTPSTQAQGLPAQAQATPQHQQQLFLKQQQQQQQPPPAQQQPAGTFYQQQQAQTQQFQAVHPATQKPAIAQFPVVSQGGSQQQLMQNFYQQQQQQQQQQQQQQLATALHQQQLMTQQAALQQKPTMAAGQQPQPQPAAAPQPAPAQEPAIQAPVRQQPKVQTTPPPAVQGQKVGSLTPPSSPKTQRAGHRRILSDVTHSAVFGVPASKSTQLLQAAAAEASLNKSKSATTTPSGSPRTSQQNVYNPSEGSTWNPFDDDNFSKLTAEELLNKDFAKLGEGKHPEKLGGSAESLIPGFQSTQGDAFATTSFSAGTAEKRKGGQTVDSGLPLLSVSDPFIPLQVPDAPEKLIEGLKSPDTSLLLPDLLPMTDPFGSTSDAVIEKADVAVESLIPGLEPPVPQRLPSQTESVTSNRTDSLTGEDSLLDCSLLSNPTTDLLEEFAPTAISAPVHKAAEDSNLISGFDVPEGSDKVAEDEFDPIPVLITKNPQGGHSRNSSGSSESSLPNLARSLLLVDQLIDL

[5] = biological target: Serine/threonine-protein kinase/endoribonuclease IRE1 (Homo sapiens, UniProt O75460)
Serine/threonine-protein kinase/endoribonuclease IRE1, sequence (O75460 whole entry, canonical isoform): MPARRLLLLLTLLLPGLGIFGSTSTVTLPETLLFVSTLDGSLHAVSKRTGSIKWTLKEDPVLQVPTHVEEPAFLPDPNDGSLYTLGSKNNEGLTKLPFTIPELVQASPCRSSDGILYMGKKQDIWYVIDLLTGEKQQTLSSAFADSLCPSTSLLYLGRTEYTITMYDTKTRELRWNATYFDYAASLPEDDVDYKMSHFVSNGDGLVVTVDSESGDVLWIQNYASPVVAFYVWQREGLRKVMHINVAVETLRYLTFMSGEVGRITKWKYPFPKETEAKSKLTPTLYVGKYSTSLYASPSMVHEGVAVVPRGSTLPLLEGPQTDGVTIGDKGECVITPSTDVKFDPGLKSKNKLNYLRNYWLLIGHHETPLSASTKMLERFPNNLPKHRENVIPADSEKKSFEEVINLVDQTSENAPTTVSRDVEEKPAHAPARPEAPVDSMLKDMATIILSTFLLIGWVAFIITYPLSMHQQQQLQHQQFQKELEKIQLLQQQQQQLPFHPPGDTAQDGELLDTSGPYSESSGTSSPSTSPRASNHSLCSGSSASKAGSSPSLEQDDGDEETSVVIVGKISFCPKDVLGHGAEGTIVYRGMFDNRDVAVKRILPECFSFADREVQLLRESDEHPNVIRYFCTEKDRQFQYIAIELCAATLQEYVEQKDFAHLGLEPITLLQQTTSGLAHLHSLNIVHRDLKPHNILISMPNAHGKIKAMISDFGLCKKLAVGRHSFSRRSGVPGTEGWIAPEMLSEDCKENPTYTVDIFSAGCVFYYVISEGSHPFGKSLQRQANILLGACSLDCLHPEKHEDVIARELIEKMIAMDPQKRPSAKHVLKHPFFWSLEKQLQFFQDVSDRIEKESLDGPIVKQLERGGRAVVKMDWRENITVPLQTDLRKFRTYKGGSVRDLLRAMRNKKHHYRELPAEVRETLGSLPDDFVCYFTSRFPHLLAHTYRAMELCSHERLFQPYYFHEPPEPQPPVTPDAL

[6] = biological target: Casein kinase I isoform delta (Homo sapiens, UniProt P48730)
Casein kinase I isoform delta, sequence (P48730 whole entry, canonical isoform): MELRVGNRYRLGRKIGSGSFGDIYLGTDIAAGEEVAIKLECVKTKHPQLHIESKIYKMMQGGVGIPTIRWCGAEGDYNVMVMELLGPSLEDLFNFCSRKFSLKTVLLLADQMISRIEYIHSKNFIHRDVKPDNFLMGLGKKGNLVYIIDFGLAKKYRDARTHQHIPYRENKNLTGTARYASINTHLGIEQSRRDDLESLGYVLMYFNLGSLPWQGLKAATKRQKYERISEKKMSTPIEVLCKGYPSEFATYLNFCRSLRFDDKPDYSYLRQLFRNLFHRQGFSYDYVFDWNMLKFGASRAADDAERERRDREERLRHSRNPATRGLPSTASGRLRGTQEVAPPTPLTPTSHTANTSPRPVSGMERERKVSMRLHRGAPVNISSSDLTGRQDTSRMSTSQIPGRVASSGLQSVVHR
Also: in the data inactive means no Kd found up to 30 µM.

| SMILES | Kd [1] | Kd [2] | Kd [3] | Kd (Rab-like protein 3) | Kd [4] | Kd [5] | Kd [6] |
| --- | --- | --- | --- | --- | --- | --- | --- |
| CC(=O)c1cnc2ccc(-c3cc(Cl)c(O)c(Cl)c3)nc2c1N[C@H]1CC[C@H](CN(C)C)CC1 | > 30 µM (inactive) | > 30 µM (inactive) | > 30 µM (inactive) |  |  |  |  |
| COc1cc(Nc2ncc3c(n2)-c2ccc(Cl)cc2C(c2c(F)cccc2OC)=NC3)ccc1C(=O)O [ALISERTIB] | > 30 µM (inactive) |  | > 30 µM (inactive) | > 30 µM (inactive) | > 30 µM (inactive) | > 30 µM (inactive) |  |
| Cc1nc(NC(=O)N2CCC[C@H]2C(N)=O)sc1-c1ccnc(C(C)(C)C(F)(F)F)c1 [ALPELISIB] | > 30 µM (inactive) | > 30 µM (inactive) | > 30 µM (inactive) |  | > 30 µM (inactive) | > 30 µM (inactive) | > 30 µM (inactive) |
| CNC(=O)c1ccccc1Sc1ccc2c(/C=C/c3ccccn3)n[nH]c2c1 [AXITINIB] | > 30 µM (inactive) |  |  |  |  |  |  |
| NC(=O)Nc1cc(-c2cccc(F)c2)sc1C(=O)N[C@H]1CCCNC1 [AZD-7762] | > 30 µM (inactive) |  | > 30 µM (inactive) | > 30 µM (inactive) | 0.073 µM (active) |  | > 30 µM (inactive) |
| Cc1cc(C(=O)NOCCO)c(Nc2ccc(I)cc2F)n(C)c1=O [AZD-8330] | > 30 µM (inactive) | > 30 µM (inactive) | > 30 µM (inactive) |  | > 30 µM (inactive) | > 30 µM (inactive) | > 30 µM (inactive) |
| CC(C)(C)c1nc(-c2cccc(NS(=O)(=O)c3c(F)cccc3F)c2F)c(-c2ccnc(N)n2)s1 [DABRAFENIB] | > 30 µM (inactive) |  |  | > 30 µM (inactive) | > 30 µM (inactive) | 1.45 µM (active) | > 30 µM (inactive) |
| Cn1cc(C2=C(c3cn(C4CCN(Cc5ccccn5)CC4)c4ccccc34)C(=O)NC2=O)c2ccccc21 [ENZASTAURIN] | > 30 µM (inactive) |  |  | > 30 µM (inactive) |  |  |  |
| C[C@@H](Oc1cc(-n2cnc3ccc(CN4CCN(C)CC4)cc32)sc1C(N)=O)c1ccccc1C(F)(F)F [GSK-461364] | > 30 µM (inactive) |  |  | > 30 µM (inactive) |  |  |  |
| CCn1cc(-c2ccnc3[nH]c(-c4cccc(CN(C)C)c4)cc23)c(-c2ccc(NC(=O)N(C)C)cc2)n1 [GSK-1070916] |  | > 30 µM (inactive) | > 30 µM (inactive) | > 30 µM (inactive) | > 30 µM (inactive) | > 30 µM (inactive) |  |
| O=C(Nc1cc(C(F)(F)F)cc(C(F)(F)F)c1)c1cc(Cl)ccc1O [IMD-0354] | > 30 µM (inactive) |  | > 30 µM (inactive) | > 30 µM (inactive) | > 30 µM (inactive) | > 30 µM (inactive) | > 30 µM (inactive) |
| CNC(=O)c1cccc2cc(Oc3ccnc4cc(OCC5(N)CC5)c(OC)cc34)ccc12 [LUCITANIB] | > 30 µM (inactive) | > 30 µM (inactive) | > 30 µM (inactive) |  | > 30 µM (inactive) | > 30 µM (inactive) | > 30 µM (inactive) |
| Cc1[nH]c(/C=C2\C(=O)Nc3ccccc32)c(C)c1CCC(=O)O [ORANTINIB] | > 30 µM (inactive) |  | > 30 µM (inactive) | > 30 µM (inactive) | 1.17 µM (active) |  |  |
| NC(=O)c1c(OCc2c(F)cc(Br)cc2F)nsc1NC(=O)NCCCCN1CCCC1 [OSI-632] | > 30 µM (inactive) |  | > 30 µM (inactive) | > 30 µM (inactive) | > 30 µM (inactive) | > 30 µM (inactive) |  |
| CCOc1cc2ncc(C#N)c(Nc3ccc(F)c(Cl)c3)c2cc1NC(=O)/C=C/CN(C)C [PELITINIB] | > 30 µM (inactive) | > 30 µM (inactive) |  | > 30 µM (inactive) | > 30 µM (inactive) | > 30 µM (inactive) | 3.88 µM (active) |
| CC(=O)NCC(=O)N1[C@@H]2CC[C@H]1c1ccc(Nc3ncc(C(F)(F)F)c(NC4CCC4)n3)cc12 [PF-03814735] | > 30 µM (inactive) |  | > 30 µM (inactive) | > 30 µM (inactive) | 0.009 µM (active) | 3.64 µM (active) |  |
| Cc1cnc(NC(=O)Nc2cc(Br)c(C)cc2OC[C@@H]2CNCCO2)cn1 [RABUSERTIB] | > 30 µM (inactive) |  | > 30 µM (inactive) | > 30 µM (inactive) | > 30 µM (inactive) | > 30 µM (inactive) | > 30 µM (inactive) |
| CNC(=O)c1cc(Oc2ccc(NC(=O)Nc3cc(C(C)(C)C)nn3-c3ccc4ncccc4c3)c(F)c2)ccn1 [REBASTINIB] | > 30 µM (inactive) | > 30 µM (inactive) | > 30 µM (inactive) | > 30 µM (inactive) | > 30 µM (inactive) |  | > 30 µM (inactive) |
| O=C(NOCCO)c1cc(CN2OCCCC2=O)c(F)c(F)c1Nc1ccc(I)cc1F [RO-4987655] | > 30 µM (inactive) |  |  | > 30 µM (inactive) |  |  |  |
| N#CC[C@H](C1CCCC1)n1cc(-c2ncnc3[nH]ccc23)cn1 [RUXOLITINIB] | > 30 µM (inactive) |  |  |  |  |  |  |
| Cn1cc(-c2cnn3c(N)c(Br)c([C@@H]4CCCNC4)nc23)cn1 [SCH-900776] | > 30 µM (inactive) |  | > 30 µM (inactive) | > 30 µM (inactive) | > 30 µM (inactive) | > 30 µM (inactive) | > 30 µM (inactive) |
| CO[C@H]1C[C@@H]2CC[C@@H](C)[C@@](O)(O2)C(=O)C(=O)N2CCCC[C@H]2C(=O)O[C@H]([C@H](C)C[C@@H]2CC[C@@H](O)[C@H](OC)C2)CC(=O)[C@H](C)/C=C(\C)[C@@H](O)[C@@H](OC)C(=O)[C@H](C)C[C@H](C)/C=C/C=C/C=C/1C [SIROLIMUS] | > 30 µM (inactive) | > 30 µM (inactive) | > 30 µM (inactive) |  | > 30 µM (inactive) | > 30 µM (inactive) | > 30 µM (inactive) |
